Assay results: ChEMBL document CHEMBL1201862, “PubChem BioAssay data set” (2004)
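Interpolation was linear, between the two tested concentrations surrounding the appropriate level; five concentrations were tested over 48 hours in 96-well plates. At the GI50, growth is halved.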 Active and inactive are the calls of the source. Rule as the data show it: active = GI50 up to about 1.1 µM and inactive = higher.

Legend:
Assay in all cases: DTP human tumour cell line panel, 48 h
[1] = system: SF-295
[2] = system: A498
[3] = system: ACHN
[4] = system: HOP-92
[5] = system: UACC-62
[6] = system: SK-MEL-2
[7] = system: SW-620
[8] = system: NCI-H522
[9] = system: CAKI-1
[10] = system: UO-31
[11] = system: SF-268
[12] = system: HL-60
[13] = system: NCI/ADR-RES
[14] = system: HCT-116
[15] = system: HOP-62
[16] = system: RPMI-8226
[17] = system: OVCAR-4
[18] = system: SNB-75
[19] = system: SR

Measured: GI50

C=CCNC(=O)CN(CC(=O)OC)C1CCCCC1N(CC(=O)OC)CC(=O)OC (stereo unspecified)
inactive: [1] > 100 µM | [2] > 100 µM | [3] > 100 µM | [4] > 100 µM | [5] > 100 µM | [6] > 100 µM | [7] > 100 µM | [8] > 100 µM | [9] > 100 µM | [10] > 100 µM | [11] > 100 µM | [12] > 100 µM | [13] > 100 µM | [14] > 100 µM | [15] > 100 µM | [16] > 100 µM

Cc1cn(Cc2cn(CC3OC(n4cc(C)c(=O)[nH]c4=O)CC3O)nn2)c(=O)[nH]c1=O (stereo unspecified)
inactive: [1] > 100 µM | [2] > 100 µM | [3] > 100 µM | [5] > 100 µM | [6] > 100 µM | [7] > 100 µM | [17] > 100 µM | [9] > 100 µM | [10] > 100 µM | [11] > 100 µM | [13] > 100 µM | [18] > 100 µM | [14] > 100 µM | [15] > 100 µM | [16] > 100 µM

CC1(C)CC[C@]2(C(=O)O)CC[C@]3(C)C(=CC[C@@H]4[C@@]5(C)CC[C@@H]6OC(C)(C)OC[C@@]6(C)[C@@H]5CC[C@]43C)[C@H]2C1
inactive: [1] 5.18 µM | [2] 15.4 µM | [3] 3.24 µM | [5] 10.4 µM | [6] 17.3 µM | [7] 14.5 µM | [17] 3.05 µM | [8] 7.71 µM | [9] 9.91 µM | [10] 12.1 µM | [11] 8.04 µM | [12] 8.51 µM | [19] 10.1 µM | [13] 16.9 µM | [18] 11 µM | [14] 5.33 µM | [15] 10.1 µM | [16] 6 µM

CC(C)CNC1=NCC(C)S1 (stereo unspecified)
inactive: [1] > 100 µM | [2] > 100 µM | [3] > 100 µM | [4] > 100 µM | [5] > 100 µM | [6] > 100 µM | [7] > 100 µM | [8] > 100 µM | [9] > 100 µM | [10] 79.3 µM | [11] 74.8 µM | [12] > 100 µM | [19] > 100 µM | [18] > 100 µM | [14] > 100 µM | [15] > 100 µM | [16] > 100 µM
